In US20240261315A1 (Omikron Italia S.r.l., priority 2021, published 2024):

Legend:
db/db mice [1] = assay: SD-OCT measurement of retinal layer thickness in db/db mice; type: in vivo; conditions: 15 days oral treatment; for GC/IPL layer thickness / INL layer thickness / RNFL layer thickness: SD-OCT; for alteration in the thickness of retinal layers: vs placebo or healthy control
Text: (§1) The db/db mice have a mutation in the leptin receptor gene and they are an animal model of retinal neurodegeneration. Such model is useful to mime the pathophysiological events which are found in neurodegenerative pathologies such as glaucoma.
(§2) 20 db/db […] (BKS.Cg-+Leprdb/+Leprdb/OlaHsd, males, 10 weeks) were randomized in 5 groups and treated for 15 days by oral route with oral solutions based on: • 1. Citicoline 0.5% (Cit.) in 10% lactose solution administered with nasogastric tube (SNG); • 2. […] 10% lactose solution (Placebo) administered with SNG; • 5. Healthy, non-diabetic control (Control).
On day 15, 1 hour after the administration of the several treatments, the mice were subjected to (i) very high-resolution Spectral Domain Optical Coherence Tomography (SD-OCT), to obtain, in vivo, detailed images relating to the morphology of the different retinal layers. The mice were subjected to anaesthesia induced by single intraperitoneal injection of 80 mg/ml Ketamine, xylazine 12 mg/ml (Sigma-Adrich). Subsequently, to induce mydriasis, one single drop of 0.5% tropicamide was instilled and then each mouse positioned in front of the objective of OCT.
For all animals only the right eye was examined and the average obtained from three consecutive retinal scanning for each eye was considered for each layer. The OCT images were acquired through bidimensional scanning (B-scan) combined to noise reduction software with ART (automatic real time) and with a visual field of 30 degrees focalized on the head of the optic nerve. After OCT examination the animals were sacrificed by cervical dislocation and the eyes immediately enucleated.

db/db mice [2] = assay: Full field electroretinogram (ffERG) in db/db mice; type: in vivo; conditions: stimuli 10 and 40 cd s/m2, vs Placebo
Text: as §1, §2
Through (ii) full field Electroretinogram (ffERG) the electrical activity and then the functionality of the retinal cells were evaluated. The recordings were measured by using ERG platform of Ganzfeld (Phoenix Research Laboratories, Pleasanton, CA, USA) and according to the recommendations of ISCEV (International Society for Clinical Electrophysiology of Vision).

[3] = test system: glial fibrillary acidic protein GFAP; assay: Glial activation, GFAP immunohistochemistry score in db/db mice; type: in vivo
Text: as §1
[…] Citicoline 0.5% (Cit.) in 10% lactose solution administered with nasogastric tube (SNG); • 2. […] 10% lactose solution (Placebo) administered with SNG; • 5. Healthy, non-diabetic control (Control).
Through immunohistochemical assays, neurodegeneration histological markers were researched (glial activation and apoptosis):
(iii) The glial activation was evaluated by means of confocal laser scanning microscopy by using antibodies directed to the glial fibrillary acidic protein GFAP (anti-GFAP of rabbit). To evaluate the level of glial activation a scoring system (from 1 to 5) was used based upon the extension of GFAP (glial fibrillary acidic protein) colouring.
The sections were fixed in methanol (−20° C.) for 2 minutes, followed by three washing with saline phosphate buffer PBS (5 minutes each one). The sections were treated with Tris Saline Buffer TBS-Triton X-100 (0.025%) and incubated in a 1% solution of bovine albumin serum BSA and 10% goat serum in PBS for 2 hours at room temperature. The sections were then incubated with anti-GFAP of rabbit overnight at 4° C. in humid atmosphere. After three washing in PBS, 5 minutes each one, the sections were incubated with the secondary antibody Alexa AF488 goat-anti-rabbit (dilution 1:200 prepared in blocking solution). The sections were washed in PBS, coloured with Hoestch and assembled with means Flourescence Mounting Medium with a cover glass. Once the mounting support has dried up, comparative digital images of the samples were recorded with a confocal laser scanning microscope Fluoview FV 1000 Olympus (Olympus, Shinjuku, Tokyo, Japan) by using identical brightness and contrast settings.

[4] = test system: apoptotic cells in the GCL retinal layer; assay: TUNEL assay of cellular apoptosis in retina of db/db mice; type: in vivo; conditions: vs vehicle
Text: as §1, §2
(iv) The search for events of cellular apoptosis was performed through TUNEL assay by using the kit DeadEnd™ Fluorometric TUNEL System (PROMEGA, Madison, WI, USA). The TUNEL (Terminal Transferase dUTP Nick-End Labeling) colouring was performed by using the Kit system TUNEL Fluorometric DeadEnd (PROMEGA, Madison, WI, USA). Cryosections of retina were permeabilized by incubation for 2 minutes on ice with 0.1% Triton X-100 in 0.1% sodium citrate. The secondary antibody was Alexa 488 goat-anti-rabbit. For the evaluation by means of confocal laser scanning microscopy the excitation wavelength was 488 nm (detection in the range 515-565 nm (green)).

synaptophysin = assay: Synaptophysin quantification by immunofluorescence in retina of db/db mice; type: in vivo; conditions: vs placebo and healthy control
Text: as §1, §2
(v) The quantification of caspase-3 and of synaptophysin was performed by means of immunofluorescence. The sections were fixed in methanol (20° C.) for 1 min and washed with buffered saline solution (PBS) 0.01 M at pH 7.4. Then, the sections were incubated in 10% solution NGS, 0.1% Triton X-100, PBS for 1 hour at room environment and subsequently incubated with a specific primary antibody (respectively anti-caspase-3 and anti-synaptophysin monoclonal antibody of rabbit) one night at 4° C. […] Five fields (three corresponding to the central retina and two to the peripheral one) were analysed. The fluorescence intensity of images was quantified with software ImageJ.

[5] = test system: patients affected by open-angle glaucoma; assay: Clinical observation in open-angle glaucoma patients: intraocular pressure (Goldmann tonometry); type: in vivo, human; conditions: after 6 months of treatment, in addition to hypotensive therapy, 3 patients
Protocol: 12 randomized patients were included in 4 groups: • CIT. GROUP-3 patients treated with citicoline in oral solution 10 ml/die corresponding to 500 mg/die of citicoline, in addition to the hypotensive therapy; • NIC. […] The patients were treated and followed for 6 months. At baseline and after 6 months of treatment complete eye examination including visual acuity, control of the intraocular pressure (IOP) with Goldmann tonometry (GAT); visual field testing, electro-functional and morphological examination were performed.

glaucomatous patients [6] = conditions: cited from earlier work
[7] = test system: patients with controlled IOP; conditions: oral citicoline, patients with IOP <18 mmHg on b-blockers; cited from earlier work
glaucomatous patients [8] = conditions: citicoline intramuscularly, 10-year follow-up; cited from earlier work
[9] = in five days; cited from earlier work

| Compound | GC/IPL layer thickness (db/db mice [1]) | INL layer thickness (db/db mice [1]) | RNFL layer thickness (db/db mice [1]) | alteration in the thickness of retinal layers (db/db mice [1]) | reduction in the width of wave b at ERG (db/db mice [2]) | GFAP score 1, share of mice [3] | GFAP score 2, share of mice [3] | GFAP score 3, share of mice [3] | GFAP score 4, share of mice [3] | GFAP score 5, share of mice [3] | apoptosis in GCL retinal layer (TUNEL) [4] | levels of synaptophysin (synaptophysin) | IOP [5] | increase of the width of P50-N95 tract of pERG (glaucomatous patients [6]; citicoline in oral solution) | loss of nervous fibres at the retinal layer through GDX (glaucomatous patients [6]; oral solution 500 mg/die, vs antihypertensive therapy only) | latency time of VEP [7] | width of PERG signal [7] | perimetric defect (areas of not perception) (glaucomatous patients [8]) | elimination of the marked products [9] |
| --- | --- | --- | --- | --- | --- | --- | --- | --- | --- | --- | --- | --- | --- | --- | --- | --- | --- | --- | --- |
| NC(=O)c1cccnc1 [Nicotinamide] | 58.8 ± 5.2 μm | 21.1 ± 2.1 μm | 21.8 ± 2.4 μm | less reduction in the thickness of the layers | attenuated with respect to Placebo | 72% | 18% | 10% | 0% | 0% | lower apoptosis levels than the diabetic mice treated with the vehicle but with not statistically significant levels | statistically significant increase in the levels of synaptophysin | 14.0 (±2.3)^ | – | – | – | – | – | – |
| C[N+](C)(C)CCOP(=O)([O-])OP(=O)(O)OC[C@H]1O[C@@H](n2ccc(N)nc2=O)C(O)C1O (some centres unmarked) [Citicoline, citidin-5′-difosfocholine] | 59.3 ± 4.8 μm | 20.9 ± 2.5 μm | 22.3 ± 1.3 μm | less reduction in the thickness of the layers | attenuated with respect to Placebo | 71% | 22% | 7% | 0% | 0% | lower apoptosis rate with respect to the diabetic mice treated with the vehicle | statistically significant increase in the levels of synaptophysin | 13.8 (±1.8) | 100% | slows down the loss of nervous fibres at the retinal layer | decrease in latency time of VEP | improvement in the width of PERG signal | reduction of the perimetric defect | 16% |
